# Reference: patent US20120020946A1, “Methods for Inactivating Viruses” (priority 2009, published 2012)
# Key:
# [1] = test system: RD cell line (human rhabdomyosarcoma)
# [2] = test system: Poliovirus Sabin (Type 2H.010704); type: cell-based
smiles,measurement,setting,value
"OCl [Hypochlorite, Sodium hypochlorite]","cytotoxicity score, no virus added",[1],N
same,"infectivity score, virus added",[2],N
